This assay relates to SrUGT76G1. Description: In vitro UDP-glucosyltransferase activity assay with GST-SrUGT76G1. Type of assay: biochemical, Stevia rebaudiana. The note with it: for product formed by GST-SrUGT76G1 from the acceptor (TLC): 50 μM substrate, UDP-glucose donor, 30° C., 2 h; for product formed by GST-UGT76G1 from the acceptor (HPLC): 5 mM UDP-glucose, 16 h. As for the experimental part: Expression of recombinant UGT76G1 and UDP-glucosyltransferase activity assay: The full-length cDNA of SrUGT76G1 was cloned into pDEST15 to obtain GST-tag fused protein. The resulting expression vector was transformed into E. Coli BL21 (DE3)-derived Rosetta strain (Novagen) and grown under appropriate antibiotics. GST-tagged SrUGT76G1 recombinant protein was purified by glutathione agarose beads (ThermoFisher Scientific). About 1 μg of recombinant protein was used for enzyme assay with 50 μM of the substrate (dulcoside A or Reb A) in an assay buffer (50 mM HEPES, pH 7.5, 3 mM MgCl2, 10 μg/ml Bovine Serum Albumin). To initiate the reaction, a 1 mM UDP-glucose mixture (997.5 μM UDP-glucose and […] UDP-[^14C]-glucose, 2.78 kBq, Amersham Biosciences) was added. In vitro glucosyltransferase activity assays were performed as described by Richman et al. (2005). The assay was carried out at 30° C. for 2 h and extracted twice with 100 μl of water-saturated 1-butanol. Pooled fractions were dried in a vacuum centrifuge and resuspended in 10 μl water-saturated 1-butanol for thin layer chromatography (TLC) analysis. The TLC was performed with 10 μl of reaction products using chloroform:methanol:water (15:10:2 v/v/v) as the mobile phase on a silica gel-coated TLC plate (Fluka) in a mobile phase saturated glass chamber. SGs standards were run under the same condition. After air-drying, the image on the TLC plate was captured on a storage phosphor screen in a phosphorimager cassette (Bio-Rad) for 2-3 d and visualized on a Typhoon 9200 imager (Amersham Biosciences).
HPLC analysis of in vitro glucosyltransferase activity assay mixture: In vitro glucosyltransferase activity assay was performed as indicated in the TLC analysis, but 5 mM of UDP-glucose was used without UDP-[^14C]-glucose and the incubation time was increased to 16 h. Samples were extracted 3 times with water-saturated 1-butanol and dried completely in a vacuum centrifuge. Dried samples were dissolved in MeOH for UHPLC analysis in accordance with the method mentioned for SGs content analysis.

Turning to `C=C1C[C@@]23CC[C@H]4[C@@](C)(CCC[C@@]4(C)C(=O)O[C@@H]4O[C@H](CO)[C@@H](O)[C@H](O)[C@H]4O)[C@@H]2CC[C@]1(O[C@@H]1O[C@H](CO)[C@@H](O)[C@H](O)[C@H]1O[C@@H]1O[C@H](CO)[C@@H](O)[C@H](O)[C@H]1O)C3` [stevioside], the “product formed by GST-SrUGT76G1 from the acceptor (TLC)” value is recorded as “Reb A” and the “product formed by GST-UGT76G1 from the acceptor (HPLC)” value (“product formed by GST-UGT76G1” for short) is on record as “Reb A”.
Take `C=C1C[C@@]23CC[C@H]4[C@@](C)(CCC[C@@]4(C)C(=O)O[C@@H]4O[C@H](CO)[C@@H](O)[C@H](O)[C@H]4O)[C@@H]2CC[C@]1(O[C@@H]1O[C@H](CO)[C@@H](O)[C@H](O[C@@H]2O[C@H](CO)[C@@H](O)[C@H](O)[C@H]2O)[C@H]1O[C@@H]1O[C@H](CO)[C@@H](O)[C@H](O)[C@H]1O)C3` [Reb A, rebaudioside A]: the “product formed by GST-UGT76G1” value is “Reb I”.
Consider `C=C1C[C@@]23CC[C@H]4[C@@](C)(CCC[C@@]4(C)C(=O)O[C@@H]4O[C@H](CO)[C@@H](O)[C@H](O)[C@H]4O)[C@@H]2CC[C@]1(O[C@@H]1O[C@H](CO)[C@@H](O)[C@H](O)[C@H]1O[C@@H]1O[C@@H](C)[C@H](O)[C@@H](O)[C@H]1O)C3` [dulcoside A], for which the “product formed by GST-SrUGT76G1 from the acceptor (TLC)” value was “Reb C” and the “product formed by GST-UGT76G1” value is recorded as “Reb C”.

(Values after US20210123066A1, “METHODS OF REGENERATION AND TRANSFORMATION OF STEVIA PLANT AND TRANSGENIC STEVIA PLANTS HAVING ENHANCED STEVIOL GLYCOSIDES CONTENT” (TEMASEK LIFE SCIENCES LABORATORY LIMITED, priority 2018, published 2021).)
